Experimental findings from patent US9371290B2, “Pyridazinone compounds” (BIOTIE THERAPIES CORPORATION, priority 2011, dated 2016) are described below.

The target of one data set is T1, Recombinant human VAP-1 SSAO (Homo sapiens, UniProt Q16853).
T1 construct: made in house; host or cells: Chinese Hamster Ovary (CHO) cells; clarified NP40 cell lysate used directly
T1 sequence (Q16853 1-763): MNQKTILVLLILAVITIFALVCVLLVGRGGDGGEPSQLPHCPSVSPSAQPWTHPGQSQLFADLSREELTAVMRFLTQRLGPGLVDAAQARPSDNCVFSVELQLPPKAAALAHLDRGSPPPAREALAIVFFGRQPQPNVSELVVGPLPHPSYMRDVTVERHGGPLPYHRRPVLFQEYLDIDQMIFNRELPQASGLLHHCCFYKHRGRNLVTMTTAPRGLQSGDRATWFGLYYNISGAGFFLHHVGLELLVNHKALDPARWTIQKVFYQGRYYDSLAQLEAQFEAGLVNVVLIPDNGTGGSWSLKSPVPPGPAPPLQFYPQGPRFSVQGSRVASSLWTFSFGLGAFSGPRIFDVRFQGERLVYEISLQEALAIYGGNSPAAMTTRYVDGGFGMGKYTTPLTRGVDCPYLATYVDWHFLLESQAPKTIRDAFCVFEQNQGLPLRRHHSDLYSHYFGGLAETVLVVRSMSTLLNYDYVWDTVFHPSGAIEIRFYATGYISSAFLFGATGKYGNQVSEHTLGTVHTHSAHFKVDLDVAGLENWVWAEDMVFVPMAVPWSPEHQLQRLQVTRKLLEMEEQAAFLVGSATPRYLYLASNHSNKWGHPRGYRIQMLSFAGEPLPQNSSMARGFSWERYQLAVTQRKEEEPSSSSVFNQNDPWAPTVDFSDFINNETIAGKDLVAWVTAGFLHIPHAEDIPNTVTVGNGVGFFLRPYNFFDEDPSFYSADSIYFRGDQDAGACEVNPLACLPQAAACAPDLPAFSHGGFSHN
Nature of the data set: In vitro inhibition of VAP-1 SSAO activity (coupled colorimetric method, benzylamine substrate). The conditions noted are these: CHO cell lysate, 1 mM benzylamine, read-out: VAP-1 SSAO Inhibitory activity IC50. Type of data set: biochemical. On the procedure:
VAP-1 SSAO activity was measured using the coupled colorimetric method essentially as described for monoamine oxidase and related enzymes (Holt, A., et al., Anal. Biochem. 244:384-392 (1997)). Recombinant human VAP-1 SSAO expressed in Chinese Hamster Ovary (CHO) cells was used as a source of VAP-1 SSAO for activity measurements. Native CHO cells have negligible SSAO activity. These cells and their culture have previously been described (Smith, D. J., et al., J. Exp. Med. 188:17-27 (1998)). A cell lysate was prepared by suspending approximately 3.6×10^8 cells in 25 ml lysis buffer (150 mM NaCl, 10 mM Tris-Base pH 7.2, 1.5 mM MgCl2, 1% NP40) and incubating at 4° C. overnight on a rotating table. The lysate was clarified by centrifugation at 18 000 g for 5 min at room temperature and the supernatant used directly in the assay. The VAP-1 SSAO assay was performed in 96 well microtitre plates as follows. To each well was added a predetermined amount of inhibitor if required. The amount of inhibitor varied in each assay but was generally at a final concentration of between 1 nM and 50 μM. Controls lacked inhibitor. The inhibitor was in a total volume of 20 μl in water. The following reagents were then added. 0.2 M potassium phosphate buffer pH 7.6 to a total reaction volume of 200 μl, 50 μl of freshly made chromogenic solution containing 1 mM vanillic acid, 500 μM 4-aminoantipyrine and 8 U/ml horseradish peroxidase and an amount of CHO cell lysate containing VAP-1 SSAO that caused a change of 0.6 A490 per h. This was within the linear response range of the assay. The plates were incubated for 30 min at 37° C. and the background absorbance measured at 490 nm using a Wallac Victor II multilabel counter. To initiate the enzyme reaction 20 μl 10 mM benzylamine (final concentration=1 mM) was added and the plate incubated for 1 h at 37° C. The increase in absorbance, reflecting VAP-1 SSAO activity, was measured at 490 nm. Inhibition was presented as percent inhibition compared to control after correcting for background absorbance and IC50 values calculated using GraphPad Prism.
`CN(C)CCNc1cc(=O)n(-c2ccccc2)nc1-c1nc[nH]n1` [Compound 13]: the IC50 was found to be 15 µM.

Take `O=c1cc(NCCN2CCOCC2)c(-c2nc[nH]n2)nn1-c1ccccc1` [Compound 39]: the IC50 amounted to 2 µM.

With `CN1CCN(c2ccc(Nc3cc(=O)n(-c4ccc(Cl)cc4)nc3-c3nc[nH]n3)cc2)CC1` [Compound 63], the concentration for half-maximal inhibition (IC50) was found to be 0.07 µM.

For the molecule `CN1CCC(Nc2cc(=O)n(-c3ccc(Cl)cc3)nc2-c2nc[nH]n2)CC1` [Compound 68], the IC50 worked out at 0.18 µM.

`NCCCNc1cc(=O)n(-c2ccc(Cl)cc2)nc1-c1nc[nH]n1` [Compound 78]: the half-inhibitory concentration (IC50) was 0.8 µM.

On to `CN1CCN(c2ccc(Nc3cc(=O)n(-c4ccc(Cl)cc4)cc3-c3nc[nH]n3)cc2)CC1` [Compound 81], for which the IC50 stood at 0.031 µM.

Tested on in another data set: not given
Test: not given
Settings: not given
Regarding `CN1CCN(c2cc(=O)n(-c3ccccc3)nc2C(N)=O)CC1.Cl`, the melting point was in the range of 248 to 250 °C.

Turning to `CN(C)CCNC(=O)c1nn(-c2ccccc2)c(=O)cc1Oc1ccccc1.Cl`, the melting point lay in the range of 138 to 141 °C.

For the molecule `Cn1nccc1-c1nn(-c2ccccc2)c(=O)cc1Oc1ccccc1` [Compound 1], the melting point is 118 to 119 °C.

In turn, `O=c1cc(O)c(-c2nc[nH]n2)nn1-c1ccccc1` [Compound 3] registered a melting point of 218 to 220 °C.

As to `COC(=O)c1nn(-c2ccccc2)c(=O)cc1-n1cc(-c2ccccc2)nn1` [Compound 6], the melting point was in the range of 240 to 248 °C.

`CCOC(=O)c1cn(-c2cc(=O)n(-c3ccccc3)nc2C(=O)OC)nn1` [Compound 7]: the melting point was in the range of 165 to 170 °C.

As to `N=CNNC(=O)c1nn(-c2ccccc2)c(=O)cc1Sc1ccccc1` [Compound 8, N^2-iminomethyl-6-oxo-4-phenylsulfanyl-1-phenyl-1,6-dihydropyridazin-3-carbohydrazide], the melting point is 236 to 238 °C.

`O=c1cc(Oc2ccccc2)c(-c2cccnc2)nn1-c1ccccc1` [Compound 9]: the melting point was in the range of 155 to 157 °C.

Molecule `CN(C)CCNc1cc(=O)n(-c2ccccc2)nc1-c1nc[nH]n1` [Compound 13] yielded a melting point of 211 to 214 °C.

Consider `O=c1cc(Oc2ccc(Cl)cc2)c(-c2nc[nH]n2)nn1-c1ccccc1` [Compound 15], for which the melting point was 235 to 240 °C.

Take `O=c1cc(Oc2ccccc2)c(-c2ccco2)nn1-c1ccccc1` [Compound 18]: the melting point lay within 232 to 234 °C.

Consider `Cc1noc(C)c1-c1nn(-c2ccccc2)c(=O)cc1Oc1ccccc1` [Compound 19], for which the melting point lay in the range of 122 to 124 °C.

As to `Cc1ccsc1-c1nn(-c2ccccc2)c(=O)cc1Oc1ccccc1` [Compound 20], the melting point lay within 212 to 214 °C.

`O=c1cc(Oc2ccccc2)c(-c2cccc(C(F)(F)F)c2)nn1-c1ccccc1` [Compound 21, 5-phenoxy-2-phenyl-6-[(3-trifluoromethyl)phenyl]pyridazin-3(2H)-one] displayed a melting point of 146 to 148 °C.

The molecule `CN(C)/C=N/C(=O)c1nn(-c2ccccc2)c(=O)cc1Oc1ccccc1` [Compound 23, N,N-dimethyl-N′-[(6-oxo-4-phenoxy-1-phenyl-1,6-dihydropyridazin-3-yl)carbonyl]formamidine] registered a melting point of 175 to 176 °C.

`CCCc1cn(-c2cc(=O)n(-c3ccccc3)nc2C(=O)OC)nn1` [Compound 24] showed a melting point of 146 to 148 °C.

Molecule `COc1ccc(-n2nc(-c3nc[nH]n3)c(Oc3ccccc3)cc2=O)cc1` [Compound 26] returned a melting point of 284 to 286 °C.

Turning to `O=c1cc(Oc2ccccc2)c(-c2cn[nH]c2)nn1-c1ccccc1` [Compound 30], the melting point was 245 to 247 °C.

Turning to `COc1cc(=O)n(-c2ccccc2)nc1-c1nc[nH]n1` [Compound 31], the melting point fell in the range of 235 to 240 °C.

As for `CCCc1cn(-c2cc(=O)n(-c3ccccc3)nc2C#N)nn1` [Compound 32, 6-oxo-1-phenyl-4-(4-propyl-1H-1,2,3-triazol-1-yl)-1,6-dihydropyridazine-3-carbonitrile], the melting point lay in the range of 192 to 195 °C.

In the case of `O=c1cc(Oc2ccccc2)c(-c2nc[nH]n2)nn1-c1cccc(C(F)(F)F)c1` [Compound 33], the melting point fell in the range of 257 to 258 °C.

For the molecule `O=c1cc(NCCN2CCOCC2)c(-c2nc[nH]n2)nn1-c1ccccc1` [Compound 39], the melting point lay within 251 to 258 °C.

The molecule `O=c1cc(Nc2ccccc2)c(-c2nc[nH]n2)nn1-c1ccccc1` [Compound 40] showed a melting point of 287 to 290 °C.

Take `Cn1cnc(-c2nn(-c3ccccc3)c(=O)cc2Oc2ccccc2)n1` [Compound 41]: the melting point fell in the range of 235 to 237 °C.

For the molecule `O=c1cc(N2CCCC2)c(-c2nc[nH]n2)nn1-c1ccccc1` [Compound 44], the melting point was 301 to 303 °C.

On to `O=c1cc(Oc2ccccc2)c(-c2nc[nH]n2)nn1-c1ccccc1F` [Compound 45], for which the melting point fell in the range of 265 to 267 °C.

Molecule `[N-]=[N+]=Nc1cc(=O)n(-c2ccccc2)nc1C1=NCCN1` [Compound 47, 5-Azido-6-(4,5-dihydro-1H-imidazol-2-yl)-2-phenylpyridazin-3(2H)-one] had a melting point of 238 to 240 °C.

As to `Cc1nc(-c2nn(-c3ccccc3)c(=O)cc2Oc2ccccc2)n[nH]1` [Compound 51, 5-phenoxy-2-phenyl-6-(5-methyl-1H-1,2,4-triazol-3-yl)-3(2H)-pyridazinone], the melting point lay within 245 to 247 °C.

In turn, `O=c1cc(Nc2ccncc2)c(-c2nc[nH]n2)nn1-c1ccccc1` [Compound 53] displayed a melting point of 342 to 344 °C.

`CC(C)Nc1cc(=O)n(-c2ccccc2)cc1-c1nc[nH]n1` [Compound 54, 4-isopropylamino-1-phenyl-5-(1H-1,2,4-triazol-3-yl)-pyridin-2(1H)-one] yielded a melting point of 307 to 310 °C.

The molecule `COc1ccc(Nc2cc(=O)n(-c3ccc(Cl)cc3)nc2-c2nc[nH]n2)cc1OC` [Compound 60] came in with a melting point of 227 to 230 °C.

In the case of `CN1CCN(c2ccc(Nc3cc(=O)n(-c4ccc(Cl)cc4)nc3-c3nc[nH]n3)cc2)CC1` [Compound 63], the melting point fell in the range of 227 to 229 °C.

Turning to `O=c1cc(Nc2ccccc2)c(-c2nc[nH]n2)nn1-c1ccc(Cl)cc1` [Compound 64], the melting point fell in the range of 244 to 246 °C.

`Nc1ccc(Nc2cc(=O)n(-c3ccc(Cl)cc3)nc2-c2nc[nH]n2)cc1` [Compound 66] displayed a melting point of 278 to 281 °C.

Molecule `CN1CCC(Nc2cc(=O)n(-c3ccc(Cl)cc3)nc2-c2nc[nH]n2)CC1` [Compound 67] showed a melting point of 270 to 272 °C.

Consider `CN1CCC(Nc2cc(=O)n(-c3ccc(Cl)cc3)nc2-c2nc[nH]n2)CC1` [Compound 68], for which the melting point lay within 227 to 230 °C.

`O=c1cc(Nc2ccccc2)c(-c2nc[nH]n2)nn1-c1cccc(F)c1` [Compound 69] registered a melting point of 233 to 235 °C.

The molecule `CN(C)c1ccc(Nc2cc(=O)n(-c3cccc(Cl)c3)nc2-c2nc[nH]n2)cc1` [Compound 72] displayed a melting point of 243 to 245 °C.

As for `NNC(=O)c1nn(-c2ccccc2)c(=O)cc1Oc1ccccc1` [Compound 76], the melting point fell in the range of 80 to 82 °C.

Molecule `NCCCNc1cc(=O)n(-c2ccc(Cl)cc2)nc1-c1nc[nH]n1` [Compound 78] returned a melting point of 285 to 290 °C.

For the molecule `N#CCNc1cc(=O)n(-c2ccc(Cl)cc2)nc1-c1nc[nH]n1` [Compound 79], the melting point lay within 303 to 306 °C.

For the molecule `O=c1cc(Nc2ccc(N3CCNCC3)cc2)c(-c2nc[nH]n2)nn1-c1ccc(Cl)cc1` [Compound 80, 2-(4-chlorophenyl)-5-{[4-(4-piperazine-1-yl)phenyl]amino}-6-(1H-1,2,4-triazol-3-yl)-3(2H)-pyridazinone], the melting point fell in the range of 212 to 224 °C.

Turning to `CN1CCN(c2ccc(Nc3cc(=O)n(-c4ccc(Cl)cc4)cc3-c3nc[nH]n3)cc2)CC1` [Compound 81], the melting point was 218 to 221 °C.

`C#CCN(C)c1cc(=O)n(-c2ccc(Cl)cc2)nc1-c1nc[nH]n1` [Compound 82] displayed a melting point of 210 to 212 °C.

In general, IC50 refers to the concentration that gives 50% inhibition. As a reminder, the melting point is the temperature of the solid-liquid transition.
